Measured values: US9265253B2, “Use of macrocyclic picolinamides as fungicides” (DOW AGROSCIENCES LLC, priority 2013, dated 2016)

These compounds were tested on Mycosphaerella graminicola; Anamorph: Septoria tritici (assay: Leaf Blotch of Wheat (SEPTTR) disease control). Conditions: Zymoseptoria tritici, 24 h, 1 Day Protectant, rate 100 ppm; read-out: SEPTTR 1 DP disease control.
Assay type: in vivo
In short: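 Yuma wheat, 1st leaf stage; spray to run-off, acetone + 9 vol water/110 ppm Triton X-100; S. tritici spores pre- or post-treatment; dew chamber 100% RH, then greenhouse 20° C. Read: % severity vs untreated → % control.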

Compound	pest or weed control at 100 ppm [%]
COc1ccnc(C(=O)N[C@H]2CCC[C@H](CC3CCCC3)[C@@H](OC(=O)C(C)C)[C@H](C)OC2=O)c1O [Compound F35]	80 to 100
COc1ccnc(C(=O)N[C@H]2CCC[C@H](Cc3ccc(F)cc3)[C@@H](OCC(C)C)[C@H](C)OC2=O)c1O [Compound F14]	80 to 100
CCCO[C@@H]1[C@@H](Cc2ccccc2)CCC[C@H](NC(=O)c2nccc(OC)c2O)C(=O)O[C@H]1C [Compound F21]	0 to 80
COc1ccnc(C(=O)N[C@H]2CCC[C@H](CCC(C)C)[C@@H](OCCCC(F)(F)F)[C@H](C)OC2=O)c1O [Compound F5]	80 to 100
CCCO[C@@H]1[C@@H](CCC(C)C)CCC[C@H](NC(=O)c2nccc(OC)c2O)C(=O)O[C@H]1C [Compound F4]	80 to 100
COc1ccnc(C(=O)N[C@H]2CCC[C@H](Cc3ccc(F)cc3)[C@@H](Oc3ccccc3)[C@H](C)OC2=O)c1O [Compound F11]	80 to 100
COc1ccnc(C(=O)N[C@H]2CCC[C@H](CC3CCCC3)[C@@H](OCC3CC3)[C@H](C)OC2=O)c1O [Compound F31]	80 to 100
COc1ccnc(C(=O)N[C@H]2CCC[C@H](CC3CCCCC3)[C@@H](OCC(C)C)[C@H](C)OC2=O)c1O [Compound F25]	80 to 100
COCC[C@H]1CCC[C@H](NC(=O)c2nccc(OC)c2O)C(=O)O[C@@H](C)[C@@H]1Oc1ccccc1 [Compound F45]	80 to 100
COc1ccnc(C(=O)N[C@H]2CCC[C@H](CCC(C)C)[C@@H](OC)[C@H](C)OC2=O)c1OCOC(C)=O [Compound F95]	80 to 100
COc1ccnc(C(=O)N[C@H]2CCC[C@H](C)[C@@H](OCc3ccccc3)[C@H](C)OC2=O)c1O [Compound F39]	80 to 100
CCOCC(=O)OCOc1c(OC)ccnc1C(=O)N[C@H]1CCC[C@H](CC2CCCC2)[C@@H](Oc2ccccc2)[C@H](C)OC1=O [Compound F176]	80 to 100
CCOCC(=O)OCOc1c(OC)ccnc1C(=O)N[C@H]1CCC[C@H](CCOc2ccccc2)[C@@H](Oc2ccccc2)[C@H](C)OC1=O [Compound F182]	80 to 100

Same assay, conditions: Zymoseptoria tritici, 24 h, 1 Day Protectant, rate 121.5 g/H; read-out: SEPTTR 1 DP disease control

Compound	pest or weed control at 121.5 g/ha [%]
COc1ccnc(C(=O)N[C@H]2CCC[C@H](CCC(C)C)[C@@H](OC)[C@H](C)OC2=O)c1OCOC(C)=O [Compound F95]	80 to 100
CCOCC(=O)OCOc1c(OC)ccnc1C(=O)N[C@H]1CCC[C@H](CC2CCCC2)[C@@H](Oc2ccccc2)[C@H](C)OC1=O [Compound F176]	80 to 100
CCOCC(=O)OCOc1c(OC)ccnc1C(=O)N[C@H]1CCC[C@H](CCOc2ccccc2)[C@@H](Oc2ccccc2)[C@H](C)OC1=O [Compound F182]	80 to 100

Same assay, conditions: Zymoseptoria tritici, 24 h, Wheat Leaf Blotch; 1 Day Protectant; rate 121.5 g/H (low volume application); read-out: Disease control SEPTTR 1 DP

Compound	pest or weed control at 121.5 g/ha [%]
CCO[C@@H]1[C@@H](Cc2ccccc2)CCC[C@H](NC(=O)c2nccc(OC)c2OC(=O)CCOC)C(=O)O[C@H]1C [Compound F197]	80 to 100

Same assay, conditions: Zymoseptoria tritici, 72 h, 3 Day Curative, rate 100 ppm; read-out: SEPTTR 3 DC disease control

Compound	pest or weed control at 100 ppm [%]
COc1ccnc(C(=O)N[C@H]2CCC[C@H](Cc3ccc(F)cc3)[C@@H](OCC(C)C)[C@H](C)OC2=O)c1O [Compound F14]	80 to 100
CCCO[C@@H]1[C@@H](Cc2ccccc2)CCC[C@H](NC(=O)c2nccc(OC)c2O)C(=O)O[C@H]1C [Compound F21]	0 to 80
COc1ccnc(C(=O)N[C@H]2CCC[C@H](CCC(C)C)[C@@H](OCCCC(F)(F)F)[C@H](C)OC2=O)c1O [Compound F5]	80 to 100
CCCO[C@@H]1[C@@H](CCC(C)C)CCC[C@H](NC(=O)c2nccc(OC)c2O)C(=O)O[C@H]1C [Compound F4]	80 to 100
COc1ccnc(C(=O)N[C@H]2CCC[C@H](Cc3ccc(F)cc3)[C@@H](Oc3ccccc3)[C@H](C)OC2=O)c1O [Compound F11]	80 to 100
COc1ccnc(C(=O)N[C@H]2CCC[C@H](CC3CCCC3)[C@@H](OCC3CC3)[C@H](C)OC2=O)c1O [Compound F31]	80 to 100
COc1ccnc(C(=O)N[C@H]2CCC[C@H](CC3CCCCC3)[C@@H](OCC(C)C)[C@H](C)OC2=O)c1O [Compound F25]	0 to 80
COCC[C@H]1CCC[C@H](NC(=O)c2nccc(OC)c2O)C(=O)O[C@@H](C)[C@@H]1Oc1ccccc1 [Compound F45]	80 to 100
COc1ccnc(C(=O)N[C@H]2CCC[C@H](CCC(C)C)[C@@H](OC)[C@H](C)OC2=O)c1OCOC(C)=O [Compound F95]	80 to 100
COc1ccnc(C(=O)N[C@H]2CCC[C@H](C)[C@@H](OCc3ccccc3)[C@H](C)OC2=O)c1O [Compound F39]	0 to 80
CCOCC(=O)OCOc1c(OC)ccnc1C(=O)N[C@H]1CCC[C@H](CC2CCCC2)[C@@H](Oc2ccccc2)[C@H](C)OC1=O [Compound F176]	80 to 100
CCOCC(=O)OCOc1c(OC)ccnc1C(=O)N[C@H]1CCC[C@H](CCOc2ccccc2)[C@@H](Oc2ccccc2)[C@H](C)OC1=O [Compound F182]	80 to 100

Same assay, conditions: Zymoseptoria tritici, 72 h, 3 Day Curative, rate 121.5 g/H; read-out: SEPTTR 3 DC disease control

Compound	pest or weed control at 121.5 g/ha [%]
COc1ccnc(C(=O)N[C@H]2CCC[C@H](CCC(C)C)[C@@H](OC)[C@H](C)OC2=O)c1OCOC(C)=O [Compound F95]	0 to 80
CCOCC(=O)OCOc1c(OC)ccnc1C(=O)N[C@H]1CCC[C@H](CC2CCCC2)[C@@H](Oc2ccccc2)[C@H](C)OC1=O [Compound F176]	80 to 100
CCOCC(=O)OCOc1c(OC)ccnc1C(=O)N[C@H]1CCC[C@H](CCOc2ccccc2)[C@@H](Oc2ccccc2)[C@H](C)OC1=O [Compound F182]	80 to 100

Same assay, conditions: Zymoseptoria tritici, 72 h, Wheat Leaf Blotch; 3 Day Curative; rate 121.5 g/H (low volume application); read-out: Disease control SEPTTR 3 DC

Compound	pest or weed control at 121.5 g/ha [%]
CCO[C@@H]1[C@@H](Cc2ccccc2)CCC[C@H](NC(=O)c2nccc(OC)c2OC(=O)CCOC)C(=O)O[C@H]1C [Compound F197]	80 to 100

The compounds below were run on Puccinia triticina; Synonym: Puccinia recondite f. Sp. Tritici (assay: Wheat Brown Rust (PUCCRT) disease control). Conditions: Puccinia triticina, topical, 24 h, 1 Day Protectant, rate 100 ppm; read-out: PUCCRT 1 DP disease control.
Assay type: in vivo
In short: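 Brown rust on first-leaf Yuma wheat: spore inoculation before or after spray application (acetone/Triton X-100 solution, or EC with Trycol in track spray), overnight 100% RH at 22 °C, disease developed at 24 °C. Severity scored 0–100% and converted to percent control against untreated.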

Compound	pest or weed control at 100 ppm [%]
COc1ccnc(C(=O)N[C@H]2CCC[C@H](CC3CCCC3)[C@@H](OC(=O)C(C)C)[C@H](C)OC2=O)c1O [Compound F35]	0 to 80
COc1ccnc(C(=O)N[C@H]2CCC[C@H](Cc3ccc(F)cc3)[C@@H](OCC(C)C)[C@H](C)OC2=O)c1O [Compound F14]	80 to 100
CCCO[C@@H]1[C@@H](Cc2ccccc2)CCC[C@H](NC(=O)c2nccc(OC)c2O)C(=O)O[C@H]1C [Compound F21]	80 to 100
COc1ccnc(C(=O)N[C@H]2CCC[C@H](CCC(C)C)[C@@H](OCCCC(F)(F)F)[C@H](C)OC2=O)c1O [Compound F5]	80 to 100
CCCO[C@@H]1[C@@H](CCC(C)C)CCC[C@H](NC(=O)c2nccc(OC)c2O)C(=O)O[C@H]1C [Compound F4]	80 to 100
COc1ccnc(C(=O)N[C@H]2CCC[C@H](Cc3ccc(F)cc3)[C@@H](Oc3ccccc3)[C@H](C)OC2=O)c1O [Compound F11]	80 to 100
COc1ccnc(C(=O)N[C@H]2CCC[C@H](CC3CCCC3)[C@@H](OCC3CC3)[C@H](C)OC2=O)c1O [Compound F31]	80 to 100
COc1ccnc(C(=O)N[C@H]2CCC[C@H](CC3CCCCC3)[C@@H](OCC(C)C)[C@H](C)OC2=O)c1O [Compound F25]	80 to 100
COCC[C@H]1CCC[C@H](NC(=O)c2nccc(OC)c2O)C(=O)O[C@@H](C)[C@@H]1Oc1ccccc1 [Compound F45]	80 to 100
COc1ccnc(C(=O)N[C@H]2CCC[C@H](CCC(C)C)[C@@H](OC)[C@H](C)OC2=O)c1OCOC(C)=O [Compound F95]	80 to 100
COc1ccnc(C(=O)N[C@H]2CCC[C@H](C)[C@@H](OCc3ccccc3)[C@H](C)OC2=O)c1O [Compound F39]	80 to 100
CCOCC(=O)OCOc1c(OC)ccnc1C(=O)N[C@H]1CCC[C@H](CC2CCCC2)[C@@H](Oc2ccccc2)[C@H](C)OC1=O [Compound F176]	80 to 100
CCOCC(=O)OCOc1c(OC)ccnc1C(=O)N[C@H]1CCC[C@H](CCOc2ccccc2)[C@@H](Oc2ccccc2)[C@H](C)OC1=O [Compound F182]	80 to 100

Same assay, conditions: Puccinia triticina, topical, 24 h, 1 Day Protectant, rate 121.5 g/H; read-out: PUCCRT 1 DP disease control

Compound	pest or weed control at 121.5 g/ha [%]
COc1ccnc(C(=O)N[C@H]2CCC[C@H](CCC(C)C)[C@@H](OC)[C@H](C)OC2=O)c1OCOC(C)=O [Compound F95]	80 to 100
CCOCC(=O)OCOc1c(OC)ccnc1C(=O)N[C@H]1CCC[C@H](CC2CCCC2)[C@@H](Oc2ccccc2)[C@H](C)OC1=O [Compound F176]	80 to 100
CCOCC(=O)OCOc1c(OC)ccnc1C(=O)N[C@H]1CCC[C@H](CCOc2ccccc2)[C@@H](Oc2ccccc2)[C@H](C)OC1=O [Compound F182]	80 to 100

Same assay, conditions: Puccinia triticina, topical, 24 h, Wheat Brown Rust; 1 Day Protectant; rate 121.5 g/H (low volume application); read-out: Disease control PUCCRT 1 DP

Compound	pest or weed control at 121.5 g/ha [%]
CCO[C@@H]1[C@@H](Cc2ccccc2)CCC[C@H](NC(=O)c2nccc(OC)c2OC(=O)CCOC)C(=O)O[C@H]1C [Compound F197]	80 to 100

Same assay, conditions: Puccinia triticina, topical, 72 h, 3 Day Curative, rate 100 ppm; read-out: PUCCRT 3 DC disease control

Compound	pest or weed control at 100 ppm [%]
COc1ccnc(C(=O)N[C@H]2CCC[C@H](Cc3ccc(F)cc3)[C@@H](OCC(C)C)[C@H](C)OC2=O)c1O [Compound F14]	80 to 100
CCCO[C@@H]1[C@@H](Cc2ccccc2)CCC[C@H](NC(=O)c2nccc(OC)c2O)C(=O)O[C@H]1C [Compound F21]	80 to 100
COc1ccnc(C(=O)N[C@H]2CCC[C@H](CCC(C)C)[C@@H](OCCCC(F)(F)F)[C@H](C)OC2=O)c1O [Compound F5]	0 to 80
CCCO[C@@H]1[C@@H](CCC(C)C)CCC[C@H](NC(=O)c2nccc(OC)c2O)C(=O)O[C@H]1C [Compound F4]	80 to 100
COc1ccnc(C(=O)N[C@H]2CCC[C@H](Cc3ccc(F)cc3)[C@@H](Oc3ccccc3)[C@H](C)OC2=O)c1O [Compound F11]	0 to 80
COc1ccnc(C(=O)N[C@H]2CCC[C@H](CC3CCCC3)[C@@H](OCC3CC3)[C@H](C)OC2=O)c1O [Compound F31]	80 to 100
COCC[C@H]1CCC[C@H](NC(=O)c2nccc(OC)c2O)C(=O)O[C@@H](C)[C@@H]1Oc1ccccc1 [Compound F45]	80 to 100
COc1ccnc(C(=O)N[C@H]2CCC[C@H](CCC(C)C)[C@@H](OC)[C@H](C)OC2=O)c1OCOC(C)=O [Compound F95]	80 to 100
COc1ccnc(C(=O)N[C@H]2CCC[C@H](C)[C@@H](OCc3ccccc3)[C@H](C)OC2=O)c1O [Compound F39]	80 to 100
CCOCC(=O)OCOc1c(OC)ccnc1C(=O)N[C@H]1CCC[C@H](CC2CCCC2)[C@@H](Oc2ccccc2)[C@H](C)OC1=O [Compound F176]	80 to 100
CCOCC(=O)OCOc1c(OC)ccnc1C(=O)N[C@H]1CCC[C@H](CCOc2ccccc2)[C@@H](Oc2ccccc2)[C@H](C)OC1=O [Compound F182]	80 to 100

Same assay, conditions: Puccinia triticina, topical, 72 h, 3 Day Curative, rate 121.5 g/H; read-out: PUCCRT 3 DC disease control

Compound	pest or weed control at 121.5 g/ha [%]
COc1ccnc(C(=O)N[C@H]2CCC[C@H](CCC(C)C)[C@@H](OC)[C@H](C)OC2=O)c1OCOC(C)=O [Compound F95]	0 to 80
CCOCC(=O)OCOc1c(OC)ccnc1C(=O)N[C@H]1CCC[C@H](CC2CCCC2)[C@@H](Oc2ccccc2)[C@H](C)OC1=O [Compound F176]	0 to 80
CCOCC(=O)OCOc1c(OC)ccnc1C(=O)N[C@H]1CCC[C@H](CCOc2ccccc2)[C@@H](Oc2ccccc2)[C@H](C)OC1=O [Compound F182]	0 to 80

Same assay, conditions: Puccinia triticina, topical, 72 h, Wheat Brown Rust; 3 Day Curative; rate 121.5 g/H (low volume application); read-out: Disease control PUCCRT 3 DC

Compound	pest or weed control at 121.5 g/ha [%]
CCO[C@@H]1[C@@H](Cc2ccccc2)CCC[C@H](NC(=O)c2nccc(OC)c2OC(=O)CCOC)C(=O)O[C@H]1C [Compound F197]	80 to 100
